These results are taken from patent US20230066011A1, “PYRROLOPYRIMIDINE DERIVATIVE, AND PHARMACEUTICAL COMPOSITION FOR PREVENTING OR TREATING PROTEIN KINASE-RELATED DISEASE COMPRISING SAME AS ACTIVE INGREDIENT” (VORONOI CO., LTD., priority 2019, published 2023).

In one test the target is T1, human GST-DYRK1A (Homo sapiens, UniProt Q13627).
T1 construct: purified human GST-DYRK1A (full length, Thermo Scientifics) enzyme; purchased Thermo Scientifics
The experiment in a line: GST-DYRK1A enzyme inhibition, ADP-Glo kinase assay. The format is biochemical. Particulars: ATP 10 μM, GST-DYRK1A full length, read-out: DYRK1 IC50. As for the experimental part:
(§1) To evaluate an inhibitory activity of the compound according to the present invention against LRRK2, LRRK2 (G2019S), DYRK1, CLK1, and TTK kinases, experiments were performed as follows.
(§2) Each of the Example compounds was reacted with a purified human GST-DYRK1A (full length, Thermo Scientifics) enzyme to evaluate an ability to inhibit an enzyme using a method as described below. A composition of 40 mM Tris-HCl (pH 7.4), 20 mM MgCl2, 0.5 mg/mL BSA, and 50 μM DTT was used as a reaction buffer, and all reactions of test substances were performed in the reaction buffer. In the test, purified ATP (10 μM) and a specific substrate solution were reacted with a human GST-DYRK1A (full length, 10 ng) enzyme at 25° C. for an hour, and the enzyme activities were then determined using an in vitro ADP-Glo™ kinase assay (Promega). An enzyme-activity reaction solution, an ADP-Glo reaction solution, and an enzyme-ability detection solution were reacted at a ratio of 2:2:1 to measure a degree of inhibition of the enzyme activity with luminescence. The degree of inhibition of the enzyme activity according to the treatment concentration of each of the compounds was calculated based on the fluorescence of the enzyme activity of the solvent control which was not treated with the compound. In this case, the concentration of each of the compounds inhibiting 50% of the enzyme activity was determined to be an IC50 (nM) value, and the IC50 (nM) value of each of the compounds was determined from 3 sets of data, and calculated using Prism (Version 5.01; GraphPad) software.

The next test concerns the target T2, human GST-CLK1 (Homo sapiens, UniProt P49759).
T2 construct: purified human GST-CLK1 (129-end, SignalChem) enzyme; purchased SignalChem
The experiment in a line: GST-CLK1 enzyme inhibition, ADP-Glo kinase assay. The following applies: ATP 10 μM, GST-CLK1 129-end. The format is biochemical. The protocol:
as §1
as §2, with “GST-CLK1 (129-end, SignalChem)” for “GST-DYRK1A (full length, Thermo Scientifics)”, “GST-CLK1 (129-end, 3” for “GST-DYRK1A (full length, 10”, “value. The” for “value, and the”
(ADP-Glo first removes unused ATP, then detects ADP through luciferase.)

Each structure is given as a SMILES string.

T2 sequence (P49759 129-484 limits assumed): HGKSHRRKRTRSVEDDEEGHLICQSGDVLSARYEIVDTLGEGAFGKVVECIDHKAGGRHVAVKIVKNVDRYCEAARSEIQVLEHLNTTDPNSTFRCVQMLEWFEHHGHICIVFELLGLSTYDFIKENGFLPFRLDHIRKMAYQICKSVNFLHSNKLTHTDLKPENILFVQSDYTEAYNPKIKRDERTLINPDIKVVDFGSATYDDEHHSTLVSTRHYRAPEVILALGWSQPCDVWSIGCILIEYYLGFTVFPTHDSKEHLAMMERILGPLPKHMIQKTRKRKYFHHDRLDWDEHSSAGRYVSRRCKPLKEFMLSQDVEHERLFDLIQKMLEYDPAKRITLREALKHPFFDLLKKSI

`CNc1nc(Nc2ccc(C(=O)N3CCN(C4COC4)CC3)c3c2OCCO3)nc2[nH]cc(C#N)c12` [Example 280, 4-(methylamino)-2-((8-(4-(oxetan-3-yl)piperazine-1-carbonyl)-2,3-dihydrobenzo[b][1,4]dioxin-5-yl)amino)-7H-pyrrolo[2,3-d]pyrimidine-5-carbonitrile]: the IC50 is 101 to 300 nM at human GST-DYRK1A and under 100 nM against human GST-CLK1.

Consider `CC[C@@H](C)Nc1nc(Nc2ccc(P(C)(C)=O)cc2OC)nc2[nH]cc(C#N)c12` [Example 266, (R)-4-(sec-butylamino)-2-((4-(dimethylphosphoryl)-2-methoxyphenyl)amino)-7H-pyrrolo[2,3-d]pyrimidine-5-carbonitrile], for which the 50% inhibitory concentration (IC50) was 101 to 300 nM on human GST-DYRK1A and under 100 nM against human GST-CLK1.

As to `COc1cc(P2(=O)CCN(C3COC3)CC2)ccc1Nc1nc(NC2CCOCC2)c2c(C#N)c[nH]c2n1` [Example 303, 2-((2-methoxy-4-(1-(oxetan-3-yl)-4-oxido-1,4-azaphosphinan-4-yl)phenyl)amino)-4-((tetrahydro-2H-pyran-4-yl)amino)-7H-pyrrolo[2,3-d]pyrimidine-5-carbonitrile], the half-maximal inhibitory concentration (IC50) at human GST-DYRK1A and against human GST-CLK1 was 301 to 1000 nM throughout.

With `CCNc1nc(Nc2ccc(P(C)(C)=O)cc2OC)nc2[nH]cc(C(F)(F)F)c12` [Example 368, (4-((4-(ethylamino)-5-(trifluoromethyl)-7H-pyrrolo[2,3-d]pyrimidin-2-yl)amino)-3-methoxyphenyl) dimethyl-phosphine oxide], the IC50 was 101 to 300 nM on human GST-DYRK1A and under 100 nM on human GST-CLK1.

Take `O=C(c1ccc(Nc2nc(N[C@H]3CCOC3)c3cc[nH]c3n2)c2c1OCCO2)N1CCOCC1` [Example 51, (S)-morpholino(8-((4-((tetrahydrofuran-3-yl)amino)-7H-pyrrolo[2,3-d]pyrimidin-2-yl)amino)-2,3-dihydrobenzo[b][1,4]dioxin-5-yl)methanone]: the IC50 on human GST-DYRK1A and against human GST-CLK1 was 301 to 1000 nM in each case.

For the compound `N#Cc1c[nH]c2nc(Nc3ccc(C(=O)N4CCC(N5CCOCC5)CC4)c4c3OCCO4)nc(NC3CCCCC3)c12` [Example 142, 4-(cyclohexylamino)-2-((8-(4-morpholinopiperidine-1-carbonyl)-2,3-dihydrobenzo[b][1,4]dioxin-5-yl)amino)-7H-pyrrolo[2,3-d]pyrimidine-5-carbonitrile], the IC50 was 301 to 1000 nM at human GST-DYRK1A and under 100 nM against human GST-CLK1.

With `COc1cc(P(C)(C)=O)ccc1Nc1nc(N[C@@H]2CCOC2)c2c(C#N)c[nH]c2n1` [Example 270, (R)-2-((4-(dimethylphosphoryl)-2-methoxyphenyl)amino)-4-((tetrahydrofuran-3-yl)amino)-7H-pyrrolo[2,3-d]pyrimidine-5-carbonitrile], the IC50 on human GST-DYRK1A and on human GST-CLK1 was 301 to 1000 nM in each case.

For the compound `CCNc1nc(Nc2ccc(P(C)(C)=O)cc2OC)nc2[nH]cc(C#N)c12` [Example 252, 2-((4-(dimethylphosphoryl)-2-methoxyphenyl)amino)-4-(ethylamino)-7H-pyrrolo[2,3-d]pyrimidine-5-carbonitrile], the values for the IC50 at human GST-DYRK1A and against human GST-CLK1 were 101 to 300 nM and 301 to 1000 nM, respectively.

Regarding `N#Cc1c[nH]c2nc(Nc3ccc(C(=O)N4CCN(C5COC5)CC4)c4c3OCCO4)nc(NC3CC3)c12` [Example 287, 4-(cyclo-propylamino)-2-((8-(4-(oxetan-3-yl)piperazine-1-carbonyl)-2,3-dihydrobenzo[b] [1,4]dioxin-5-yl)amino)-7H-pyrrolo[2,3-d]pyrimidine-5-carbonitrile], the IC50 at human GST-DYRK1A is 301 to 1000 nM; at human GST-CLK1, under 100 nM.

Turning to `CC(C)CNc1nc(Nc2ccc(C(=O)N3CCC(N4CCOCC4)CC3)c3c2OCCO3)nc2[nH]cc(C#N)c12` [Example 139, 4-(isobutylamino)-2-((8-(4-morpholinopiperidine-1-carbonyl)-2,3-dihydrobenzo[b][1,4]dioxin-5-yl)amino)-7H-pyrrolo[2,3-d]pyrimidine-5-carbonitrile], the IC50 at human GST-DYRK1A was 301 to 1000 nM; against human GST-CLK1 it was under 100 nM.

Consider `COc1cc(P(C)(C)=O)ccc1Nc1nc(NC2COC2)c2c(C#N)c[nH]c2n1` [Example 276, 2-((4-(dimethylphosphoryl)-2-methoxyphenyl)amino)-4-(oxetan-3-ylamino)-7H-pyrrolo[2,3-d]pyrimidine-5-carbonitrile], for which the IC50 on human GST-DYRK1A and against human GST-CLK1 was 301 to 1000 nM each time.

As for `COc1cc(P2(=O)CCN(C3CC3)CC2)ccc1Nc1nc(N[C@@H]2CCOC2)c2c(C#N)c[nH]c2n1` [Example 298, (R)-2-((4-(1-cyclopropyl-4-oxido-1,4-azaphosphinan-4-yl)-2-methoxyphenyl)a-mino)-4-((tetrahydrofuran-3-yl)amino)-7H-pyrrolo[2,3-d]pyrimidine-5-carbonitrile], the IC50 on human GST-DYRK1A and against human GST-CLK1 was 301 to 1000 nM throughout.

On to `CCNc1nc(Nc2ccc(C(=O)N3CCOCC3)c3c2OCC3)nc2[nH]cc(C(F)(F)F)c12` [Example 437, (7-((4-(ethylamino)-5-(trifluoromethyl)-7H-pyrrolo[2,3-d]pyrimidin-2-yl)amino)-2,3-dihydrobenzo-furan-4-yl) (morpholino) methanone], for which the 50% inhibitory concentration (IC50) at human GST-DYRK1A and at human GST-CLK1 was under 100 nM each time.

As to `CCCNc1nc(Nc2ccc(P3(=O)CCN(C4COC4)CC3)cc2OC)nc2[nH]cc(C#N)c12` [Example 283, 2-((2-methoxy-4-(1-(oxetan-3-yl)-4-oxido-1,4-azaphosphinan-4-yl)phenyl)amino)-4-(propylamino)-7H-pyrrolo[2,3-d]pyrimidine-5-carbonitrile], the results for the IC50 at human GST-DYRK1A and at human GST-CLK1 were 301 to 1000 nM and 101 to 300 nM, respectively.

For the compound `CC[C@H](C)Nc1nc(Nc2ccc(S(C)(=O)=O)cc2OC)nc2[nH]cc(C(F)(F)F)c12` [Example 380, (S)-N^4-(sec-butyl)-N^2-(2-methoxy-4-(methylsulfonyl)phenyl)-5-(trifluoromethyl)-7H-pyrrolo[2,3-d]pyrimidine-2,4-diamine], the IC50 on human GST-DYRK1A and at human GST-CLK1 was 301 to 1000 nM each time.

For `CC[C@H](C)Nc1nc(Nc2ccc(P(C)(C)=O)cc2OC)nc2[nH]cc(C#N)c12` [Example 267, (S)-4-(sec-butylamino)-2-((4-(dimethylphosphoryl)-2-methoxyphenyl)amino)-7H-pyrrolo[2,3-d]pyrimidine-5-carbonitrile], the IC50 at human GST-DYRK1A and against human GST-CLK1 was 301 to 1000 nM each time.

With `CNc1nc(Nc2ccc(P3(=O)CCN(C4COC4)CC3)cc2OC)nc2[nH]cc(C#N)c12` [Example 154, 2-((2-methoxy-4-(1-(oxetan-3-yl)-4-oxido-1,4-azaphosphinan-4-yl)phenyl)amino)-4-(methylamino)-7H-pyrrolo[2,3-d]pyrimidine-5-carbonitrile], the IC50 on human GST-DYRK1A and on human GST-CLK1 was 301 to 1000 nM throughout.

For `COc1cc(P2(=O)CCN(C3CC3)CC2)ccc1Nc1nc(N[C@H]2CCOC2)c2c(C#N)c[nH]c2n1` [Example 300, (S)-2-((4-(1-cyclopropyl-4-oxido-1,4-azaphosphinan-4-yl)-2-methoxyphenyl)a-mino)-4-((tetrahydrofuran-3-yl)amino)-7H-pyrrolo[2,3-d]pyrimidine-5-carbonitrile], the IC50 on human GST-DYRK1A was 301 to 1000 nM; on human GST-CLK1, under 100 nM.

In the case of `CCNc1nc(Nc2ccc(C(=O)N3CCC(N4CCOCC4)CC3)c3c2OCO3)nc2[nH]cc(C#N)c12` [Example 264, 4-(ethyalmino)-2-((7-(4-morpholino-1-carbonyl)benzo[d][1,3]dioxol-4-yl)amino)-7H-pyrrolo[2,3-d]pyrimidine-5-carbonitrile], the results for the IC50 at human GST-DYRK1A and against human GST-CLK1 were 101 to 300 nM and under 100 nM, respectively.

In the case of `CC[C@H](C)Nc1nc(Nc2ccc(C(=O)N3CC(CO)(CO)C3)c3c2OCCO3)nc2[nH]cc(C#N)c12` [Example 331, (S)-2-((8-(3,3-bis(hydroxy-methyl)azetidine-1-carbonyl)-2,3-dihydrobenzo[b] [1,4]dioxin-5-yl)amino)-4-(sec-butylamino)-7H-pyrrolo[2,3-d]pyrimidine-5-carbonitrile], the IC50 at human GST-DYRK1A was 301 to 1000 nM; against human GST-CLK1, under 100 nM.

Usually IC50 stands for the concentration that gives 50% inhibition.
